Measured values reported in patent publication US12617831B2 (UNIVERSITE D'ANGERS, priority 2019, dated 2026).
Read-outs that look alike come from different tables or passages of the source.

What was measured:
[1] = system: MC3T3-E1 subclone 4 cells; type: cell-based, murine
Method: Briefly, MC3T3-E1 subclone 4 cells have been grown and propagated in α-MEM supplemented with 5% fetal bovine serum (FBS), 5% bovine calf serum (BCS), 100 U/mL penicillin, and 100 μg/mL streptomycin in a humidified atmosphere enriched with 5% CO2 at 37° C. […] This day was considered as day 1. The differentiation medium was replenished every two days. […] Cultures were rinsed at least six times with milliQ water, fixed in absolute ethanol, scrapped off the culture dish and transferred onto BaF2 windows where they were air-dried. Integrity of the collagen extracellular matrix was verified by comparing the obtained Fourier transform infrared spectrum with those of commercial collagen. Spectral analysis was performed using a Bruker Vertex 70 spectrometer (Bruker optics, Ettlingen, Germany) interfaced with a Bruker Hyperion 3000 infrared microscope equipped with a standard single element Mercury Cadmium Telluride (MCT) detector. Calibration of the infrared spectrometer is done once a week with a polystyrene film standard (Bruker optics). Infrared spectra were recorded at a resolution of 4 cm^-1, with an average of 32 scans in transmission mode. Background spectral images were collected under identical conditions from the same BaF2 windows at the beginning and end of each experiment to ensure instrument stability. At least 5 spectra were acquired for each condition and analyzed with a lab-made routine script (version 2.0) in Matlab R2016b (The Mathworks, Natick, MA). […] For GIP and GLP-2 dataset, the inventors used the collagen maturity data previously acquired and analyzed. First of all, collagen maturity obtained in control cultures, i.e. in the absence of double GIP/GLP-2 analogues, were averaged and subtracted to the all dataset. […] For each concentration of peptide, the mean, SD and number of events were computed. […] The GraphPad Prism analysis consisted in: […] Statistical Analysis […] Data are represented as mean±SD.

[2] = system: ovariectomy-induced bone loss in mice; test: Trabecular bone strength, compression test of second lumbar vertebra, ovariectomized mice; type: in vivo; conditions: OVX mice, vs vehicle; GL-0001 25, GL-0007 25 and 100 nmoles/kg/day; zoledronic acid once 100 μg/kg
Method: At 16 weeks of age, ALZET osmotic pumps (model number 2006, Durect Corp., Cupertino, CA) filled with the below saline or peptide were implanted subcutaneously between the two scapula under general anesthesia in 32 mice. Successful filling of pumps was verified by weighting the pump before and after filling. At 20 weeks of age, ALZET osmotic pumps were replaced by similar pumps to ensure delivery for four new weeks. […] This dose and regimen of zoledronic acid was equivalent to the 5 mg infusion approved for the treatment of post-menopausal osteoporosis in humans. Compression experiments were performed on L2. Briefly, vertebral bodies were carefully dissected and glued with cyanoacrylate glue on a Plexiglas plate and then incubated in saline at 4° C. until use the next day. L2 vertebral bodies were compressed to failure at a displacement rate of 1 mm/min using an Instron 5942 device. Load and displacement of the upper plateau were recorded at a sampling rate of 100 Hz. Maximum load and stiffness were computerized from load-displacement curves.

[3] = system: ovariectomy-induced bone loss in mice; test: Cortical bone strength, 3-point bending at the midshaft femur, ovariectomized mice; type: in vivo
Method: At 16 weeks of age, ALZET osmotic pumps (model number 2006, Durect Corp., Cupertino, CA) filled with the below saline or peptide were implanted subcutaneously between the two scapula under general anesthesia in 32 mice. Successful filling of pumps was verified by weighting the pump before and after filling. At 20 weeks of age, ALZET osmotic pumps were replaced by similar pumps to ensure delivery for four new weeks. […] This dose and regimen of zoledronic acid was equivalent to the 5 mg infusion approved for the treatment of post-menopausal osteoporosis in humans. At necropsy, femurs and second lumbar vertebras (L2) were cleaned of soft tissue and immediately frozen in a saline-soaked gauze at −20° C. Three-point-bending experiments were performed on femurs after thawing bones at 4° C. overnight. Femurs were loaded to failure in 3-point bending at 2 mm/min using a servohydraulic materials testing system (Instron 5942, Instron, Elancourt, France). The lower span length was of 10 mm. Femurs were oriented so the anterior quadrant was facing down and subjected to tensile loads. Load and displacement of the upper crosshead, which were digitally recorded at a sampling rate of 100 Hz, were measured using a 500 N load cell (Instron). Stiffness, ultimate load, yield load, post-yield displacement (PYD), and work-to-fracture were calculated from the load-displacement curves. PYD was defined as the displacement at failure minus the displacement at yield.

[4] = system: ovariectomy-induced bone loss in mice; test: Bone matrix composition by FTIRI at the femur midshaft, ovariectomized mice; type: in vivo; conditions: OVX mice, cortical bone femur, vs vehicle
Method: At 16 weeks of age, ALZET osmotic pumps (model number 2006, Durect Corp., Cupertino, CA) filled with the below saline or peptide were implanted subcutaneously between the two scapula under general anesthesia in 32 mice. Successful filling of pumps was verified by weighting the pump before and after filling. At 20 weeks of age, ALZET osmotic pumps were replaced by similar pumps to ensure delivery for four new weeks. […] This dose and regimen of zoledronic acid was equivalent to the 5 mg infusion approved for the treatment of post-menopausal osteoporosis in humans. After three-point bending experiments, femurs were embedded undecalcified in pMMA at 4° C. One-micrometer cross-sectional sections of the midshaft femur were sandwiched between BaF2 optical windows and Fourier transform infrared imaging (FTIRI) assessment was performed in the posterior quadrant. FTIRI was performed with a vertex 70 spectrometer (Bruker, Ettlingen, Germany) interfaced with a Hyperion 3000 microscope and a focal plane array detector (64×64 pixels) covering a field of view of 180×180 μm. Nine field-of-view were stitched together to allow sufficient bone to be analyzed. Sections were scanned with a spectral resolution of 8 cm^-1 (spectral region 900-2000 cm^-1). Each spectrum was corrected for Mie scattering with the […]5 algorithm (kind gift of Prof Peter Gardner, University of Manchester, UK) prior to be subjected to pMMA subtraction. Evaluation of spectral images was done with a lab-made routine script in Matlab R2016b (The Mathworks, Natick, MA) as described in Aguado et al. (2017) Calcif Tissue Int 100:332-340. FTIR bone parameters ([…] (2012) Methods Mol Biol 816:517-525) calculated were: (1) phosphate/amide ratio (area of v1, v3 phosphate/area amide1); (2) acid phosphate content (intensity ratio 1127 cm^-1/1096 cm^-1) (Spevak et al. (2013) Calcif Tissue Int 92:418-428); (3) mineral crystallinity (intensity ratio 1030 cm^-1/1020 cm^-1), reflecting crystal size and perfection; […] (2001) J Bone Miner Res 16:893-900). For each of the compositional parameters, the mean and full width at half maximum of the pixel distribution (excluding the zero background values) were computed and represented as mean and heterogeneity.

[5] = OVX mice, 100 nmoles/kg/day, 8 weeks, vs vehicle

| Structure (SMILES) | Emax for dose-effect curves on collagen maturity ([1]; MC3T3-E1, day 14) [%] | EC50 ([1]; MC3T3-E1, day 14, mean ± SD of 5 individual experiments, read-out: EC50 for dose-effect curves on collagen maturity) [nM] | bone stiffness, compression of second lumbar vertebra [2] | increase in work-to-fracture ([3]; OVX mice, 25 nmoles/kg/day, 8 weeks, vs vehicle) [%] | increase in post-yield displacement ([3]; mouse, in vivo) [%] | increase in ultimate displacement ([3]; mouse, in vivo) [%] | increase in acid phosphate content heterogeneity ([4]; 25 nmoles/kg/day) [%] | increase in collagen maturity heterogeneity ([4]; 25 nmoles/kg/day) [%] | increase in mean collagen maturity ([4]; 25 nmoles/kg/day) [%] | EC50 [1] [nM] | augmentation in work-to-fracture [3, 5] [%] | increase in post-yield displacement [3, 5] [%] | increase in ultimate displacement [3, 5] [%] | augmentation of acid phosphate content heterogeneity ([4]; 100 nmoles/kg/day) [%] |
| --- | --- | --- | --- | --- | --- | --- | --- | --- | --- | --- | --- | --- | --- | --- |
| CC[C@H](C)[C@H](NC(=O)[C@H](CO)NC(=O)[C@H](CCSC)NC(=O)[C@H](CC(=O)O)NC(=O)[C@H](CO)NC(=O)CNC(=O)[C@H](Cc1ccccc1)NC(=O)[C@H](CO)NC(=O)CNC(=O)[C@H](CCC(=O)O)NC(=O)CNC(=O)[C@@H](N)Cc1c[nH]cn1)C(=O)N[C@@H](C)C(=O)N[C@@H](CC(C)C)C(=O)N[C@@H](CC(=O)O)C(=O)N[C@@H](CCCCN)C(=O)N[C@@H](CC(C)C)C(=O)N[C@@H](C)C(=O)N[C@@H](C)C(=O)N[C@@H](CCCNC(=N)N)C(=O)N[C@@H](CC(=O)O)C(=O)N[C@@H](Cc1ccccc1)C(=O)N[C@H](C(=O)N[C@@H](CC(N)=O)C(=O)N[C@@H](Cc1c[nH]c2ccccc12)C(=O)N[C@@H](CC(C)C)C(=O)N[C@@H](CC(C)C)C(=O)N[C@@H](CCC(N)=O)C(=O)N[C@H](C(=O)N[C@@H](CCCCN)C(=O)N[C@H](C(=O)N[C@H](C(=O)N[C@@H](CC(=O)O)C(=O)O)[C@@H](C)O)[C@@H](C)CC)[C@@H](C)O)C(C)C [GL-0001] | 207.0 | 0.0262 ± 0.0171 | significantly reduced | 37 | 70 | 34 | 21 | 28 | 10 |  |  |  |  |  |
| CC[C@H](C)[C@H](NC(=O)[C@H](CO)NC(=O)[C@H](Cc1ccccc1)NC(=O)[C@H](CC(=O)O)NC(=O)[C@H](CO)NC(=O)CNC(=O)[C@H](Cc1ccccc1)NC(=O)[C@H](CO)NC(=O)CNC(=O)[C@H](CCC(=O)O)NC(=O)CNC(=O)[C@@H](N)Cc1c[nH]cn1)C(=O)N[C@@H](C)C(=O)N[C@@H](CC(C)C)C(=O)N[C@@H](CC(=O)O)C(=O)N[C@@H](CCCCN)C(=O)N[C@@H](CC(C)C)C(=O)N[C@@H](C)C(=O)N[C@@H](C)C(=O)N[C@@H](CCCNC(=N)N)C(=O)N[C@@H](CC(=O)O)C(=O)N[C@@H](Cc1ccccc1)C(=O)N[C@H](C(=O)N[C@@H](CC(N)=O)C(=O)N[C@@H](Cc1c[nH]c2ccccc12)C(=O)N[C@@H](CC(C)C)C(=O)N[C@@H](CC(C)C)C(=O)N[C@@H](CCC(N)=O)C(=O)N[C@H](C(=O)N[C@@H](CCCCN)C(N)=O)[C@@H](C)O)C(C)C [GL-0007] | 232.3 |  | significantly reduced |  |  |  |  |  |  | 0.0259 ± 0.0145 | 33 | 62 | 33 | 18 |
